Data on 1 compound can be found in EP3449923A1, “COMBINATION OF BEN[…]-CANCER AGENT AND A SECOND ANTI-CANCER AGENT” (MEI Pharma, Inc., priority 2007, dated 2008).

This experiment relates to HCT 116 (colon). Kind of experiment: Human xenograft model, tumor growth inhibition. The experiment is classed as in vivo, female athymic nude mice. Conditions: A8 50 mg/kg po qd x 14 + vehicle (saline) iv D1,8,15. The procedure:
To assess in vivo antitumor activity in human xenograft models, female athymic nude mice, 12 to 14 weeks of age, were implanted subcutaneously in the flank with human cancer cells. When the tumors reached approximately 100 mm^3 in size, the mice were pair-matched into various treatment groups. For oral administration, compounds were dissolved in a mixture of 0.5% methylcellulose and 0.1% Tween 80 and administered by gavage to the tumor-bearing mice. For i.v.andi.p..administration, compounds were dissolved in 0.9% NaCI and for the i.v. administration, the compound was administered via the tail vein.
Percent tumor growth inhibition (%TGI) was calculated as %TGI = (Cday a−Tday a)/(Cday a−Cday 1) × 100 [formula]
Where C is the median tumor volume of the control group, T is the median tumor volume of the treatment group, and day a is the day of assessment.
It is evident that the combination of a benzimidazole based anti-cancer agent such as Compound (A8) with the different anti-cancer agents enhanced the anti-tumor effect as compared to administering either of the drug on its own. Table 5: Examples of combination of Compound (A8) and anti-cancer agents in in vivo cancer models

As for `CCCCc1nc2cc(/C=C/C(=O)NO)ccc2n1CCN(CC)CC` [Compound A8, 3-[2-Butyl-1-(2-diethylamino-ethyl)-1H-benzimidazol-5-yl]-N-hydroxy-acrylamide], the “%TGI at Day 15” value is 64%.
